The supplement of paper PMC10307832

Columns and labels:
Test in all cases: relative viability (nuclei count vs DMSO), 5 days (fraction); higher = more cells survive
RERF-LC-KJ = test system: RERF-LC-KJ
Summary of the method: (§1)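 The day after seeding in 1536-well plates, lung cancer cell lines were treated by pin tool with a single drug, or with a fixed anchor-drug dose together with five library-drug doses (not always all listed) in √10 steps. After 5 days, a combined fix-and-stain solution (final 0.05% Triton X-100, 1% formaldehyde, 1 ug/ml Hoechst) was added. Nuclei counted on 4× images gave relative viability as treated counts over vehicle counts, reported as the median of duplicate plates.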

NCI-H460 = test system: NCI-H460
Summary of the method: as §1

NCI-H1355 = test system: NCI-H1355
Summary of the method: as §1

LU99A = test system: LU99A
Summary of the method: as §1

NCI-H1793 = test system: NCI-H1793
Summary of the method: as §1

EKVX = test system: EKVX
Summary of the method: as §1

NCI-H650 = test system: NCI-H650
Summary of the method: as §1

SW 1573 = test system: SW 1573
Summary of the method: as §1

LOU-NH91 = test system: LOU-NH91
Summary of the method: as §1

NCI-H1993 = test system: NCI-H1993
Summary of the method: as §1

NCI-H2347 = test system: NCI-H2347
Summary of the method: as §1

NCI-H23 = test system: NCI-H23
Summary of the method: as §1

NCI-H1650 = test system: NCI-H1650
Summary of the method: as §1

LC-2-ad = test system: LC-2-ad
Summary of the method: as §1

PC-3 [JPC-3] = test system: PC-3 [JPC-3]
Summary of the method: as §1

BEN = test system: BEN
Summary of the method: as §1

NCI-H2228 = test system: NCI-H2228
Summary of the method: as §1

NCI-H1666 = test system: NCI-H1666
Summary of the method: as §1

NCI-H838 = test system: NCI-H838
Summary of the method: as §1

LCLC-97TM1 = test system: LCLC-97TM1
Summary of the method: as §1

NCI-H1915 = test system: NCI-H1915
Summary of the method: as §1

NCI-H520 = test system: NCI-H520
Summary of the method: as §1

A-427 = test system: A-427
Summary of the method: as §1

In the case of `O=c1[nH]c2ccccc2n1C1CCN(CCCC(c2ccc(F)cc2)c2ccc(F)cc2)CC1` [Pimozide] + COc1cc2c(Oc3ccc(NC(=O)C4(C(=O)Nc5ccc(F)cc5)CC4)cc3F)ccnc2cc1OCCCN1CCOCC1 [Foretinib] (partner 0.25 µM), the relative viability (RERF-LC-KJ; first compound 0.08 µM) is reported as 0.907, the relative viability (RERF-LC-KJ; first compound 0.253 µM) is reported as 0.844 and the relative viability (RERF-LC-KJ; first compound 0.8 µM) is reported as 0.831. For the same compound, the relative viability (RERF-LC-KJ; first compound 2.53 µM) was 0.821, the relative viability (RERF-LC-KJ; first compound 8 µM) was 0.848 and the relative viability (NCI-H460; first compound 0.08 µM) was 0.973. For the same compound, the relative viability (NCI-H460; first compound 0.253 µM) was 1.03, the relative viability (NCI-H460; first compound 0.8 µM) was 0.872 and the relative viability (NCI-H460; first compound 2.53 µM) was 0.864. It also gave a relative viability (NCI-H460; first compound 8 µM) of 0.867, a relative viability (NCI-H1355; first compound 0.08 µM) of 0.808 and a relative viability (NCI-H1355; first compound 0.253 µM) of 0.923. The relative viability (NCI-H1355; first compound 0.8 µM) was 0.888, the relative viability (NCI-H1355; first compound 2.53 µM) was 0.886 and the relative viability (NCI-H1355; first compound 8 µM) was 1. The relative viability (LU99A; first compound 0.08 µM) was 0.872, the relative viability (LU99A; first compound 0.253 µM) was 0.756 and the relative viability (LU99A; first compound 0.8 µM) was 0.922. The relative viability (LU99A; first compound 2.53 µM) was 0.84, the relative viability (LU99A; first compound 8 µM) was 0.922 and the relative viability (NCI-H1793; first compound 0.253 µM) was 0.691. For the same compound, the relative viability (NCI-H1793; first compound 0.8 µM) was 0.462, the relative viability (NCI-H1793; first compound 2.53 µM) was 0.582 and the relative viability (NCI-H1793; first compound 8 µM) was 0.521. For the same compound, the relative viability (EKVX; first compound 0.08 µM) was 0.196, the relative viability (EKVX; first compound 0.253 µM) was 0.827 and the relative viability (EKVX; first compound 0.8 µM) was 0.764. It also gave a relative viability (EKVX; first compound 2.53 µM) of 0.747, a relative viability (EKVX; first compound 8 µM) of 0.908 and a relative viability (NCI-H650; first compound 0.08 µM) of 1.07. It also gave a relative viability (NCI-H650; first compound 0.253 µM) of 1.02, a relative viability (NCI-H650; first compound 0.8 µM) of 1 and a relative viability (NCI-H650; first compound 2.53 µM) of 1.04. The relative viability (NCI-H650; first compound 8 µM) was 1.04, the relative viability (SW 1573; first compound 0.08 µM) was 0.803 and the relative viability (SW 1573; first compound 0.253 µM) was 0.946. It also gave a relative viability (SW 1573; first compound 0.8 µM) of 0.86, a relative viability (SW 1573; first compound 2.53 µM) of 0.892 and a relative viability (SW 1573; first compound 8 µM) of 1.04. The relative viability (LOU-NH91; first compound 0.08 µM) was 0.586, the relative viability (LOU-NH91; first compound 0.253 µM) was 0.743 and the relative viability (LOU-NH91; first compound 0.8 µM) was 0.879. For the same compound, the relative viability (LOU-NH91; first compound 2.53 µM) was 0.944, the relative viability (LOU-NH91; first compound 8 µM) was 0.888 and the relative viability (NCI-H1993; first compound 0.08 µM) was 0.705. For the same compound, the relative viability (NCI-H1993; first compound 0.253 µM) was 0.777, the relative viability (NCI-H1993; first compound 0.8 µM) was 0.727 and the relative viability (NCI-H1993; first compound 2.53 µM) was 0.788. The relative viability (NCI-H1993; first compound 8 µM) was 0.851, the relative viability (NCI-H2347; first compound 0.08 µM) was 0.883 and the relative viability (NCI-H2347; first compound 0.253 µM) was 0.622. For the same compound, the relative viability (NCI-H2347; first compound 0.8 µM) was 0.964, the relative viability (NCI-H2347; first compound 2.53 µM) was 1.35 and the relative viability (NCI-H2347; first compound 8 µM) was 1.07. For the same compound, the relative viability (NCI-H23; first compound 0.08 µM) was 0.676, the relative viability (NCI-H23; first compound 0.253 µM) was 1.07 and the relative viability (NCI-H23; first compound 0.8 µM) was 0.833. It also gave a relative viability (NCI-H23; first compound 2.53 µM) of 0.712, a relative viability (NCI-H23; first compound 8 µM) of 0.829 and a relative viability (NCI-H1650; first compound 0.08 µM) of 0.72. For the same compound, the relative viability (NCI-H1650; first compound 0.253 µM) was 1.23, the relative viability (NCI-H1650; first compound 0.8 µM) was 0.959 and the relative viability (NCI-H1650; first compound 2.53 µM) was 1.17. The relative viability (NCI-H1650; first compound 8 µM) was 0.933, the relative viability (LC-2-ad; first compound 0.08 µM) was 0.911 and the relative viability (LC-2-ad; first compound 0.253 µM) was 0.928. It also gave a relative viability (LC-2-ad; first compound 0.8 µM) of 0.909, a relative viability (LC-2-ad; first compound 2.53 µM) of 0.901 and a relative viability (LC-2-ad; first compound 8 µM) of 0.868. It also gave a relative viability (PC-3 [JPC-3]; first compound 0.08 µM) of 0.839, a relative viability (PC-3 [JPC-3]; first compound 0.253 µM) of 1.03 and a relative viability (PC-3 [JPC-3]; first compound 0.8 µM) of 0.952. The relative viability (PC-3 [JPC-3]; first compound 2.53 µM) was 0.931, the relative viability (PC-3 [JPC-3]; first compound 8 µM) was 0.86 and the relative viability (BEN; first compound 0.08 µM) was 0.624. It also gave a relative viability (BEN; first compound 0.253 µM) of 0.768, a relative viability (BEN; first compound 0.8 µM) of 0.618 and a relative viability (BEN; first compound 2.53 µM) of 0.581. It also gave a relative viability (BEN; first compound 8 µM) of 0.783, a relative viability (NCI-H2228; first compound 0.08 µM) of 0.863 and a relative viability (NCI-H2228; first compound 0.253 µM) of 0.839. For the same compound, the relative viability (NCI-H2228; first compound 0.8 µM) was 0.574, the relative viability (NCI-H2228; first compound 2.53 µM) was 0.831 and the relative viability (NCI-H2228; first compound 8 µM) was 0.612. It also gave a relative viability (NCI-H1666; first compound 0.08 µM) of 0.952, a relative viability (NCI-H1666; first compound 0.253 µM) of 0.939 and a relative viability (NCI-H1666; first compound 0.8 µM) of 0.941. For the same compound, the relative viability (NCI-H1666; first compound 2.53 µM) was 0.867, the relative viability (NCI-H1666; first compound 8 µM) was 0.857 and the relative viability (NCI-H838; first compound 0.08 µM) was 1.02. For the same compound, the relative viability (NCI-H838; first compound 0.253 µM) was 1.11, the relative viability (NCI-H838; first compound 0.8 µM) was 1.08 and the relative viability (NCI-H838; first compound 2.53 µM) was 1.03. For the same compound, the relative viability (NCI-H838; first compound 8 µM) was 1.04, the relative viability (LCLC-97TM1; first compound 0.08 µM) was 0.926 and the relative viability (LCLC-97TM1; first compound 0.253 µM) was 1.03. The relative viability (LCLC-97TM1; first compound 0.8 µM) was 0.823, the relative viability (LCLC-97TM1; first compound 2.53 µM) was 0.852 and the relative viability (LCLC-97TM1; first compound 8 µM) was 0.789. It also gave a relative viability (NCI-H1915; first compound 0.08 µM) of 1.05, a relative viability (NCI-H1915; first compound 0.253 µM) of 1.01 and a relative viability (NCI-H1915; first compound 0.8 µM) of 0.855. For the same compound, the relative viability (NCI-H1915; first compound 2.53 µM) was 0.974, the relative viability (NCI-H1915; first compound 8 µM) was 1.05 and the relative viability (NCI-H520; first compound 0.08 µM) was 0.886. For the same compound, the relative viability (NCI-H520; first compound 0.253 µM) was 0.779, the relative viability (NCI-H520; first compound 0.8 µM) was 0.618 and the relative viability (NCI-H520; first compound 2.53 µM) was 0.916. It also gave a relative viability (NCI-H520; first compound 8 µM) of 0.898, a relative viability (A-427; first compound 0.08 µM) of 1.02 and a relative viability (A-427; first compound 0.253 µM) of 1.04. The relative viability (A-427; first compound 0.8 µM) was 0.976, the relative viability (A-427; first compound 2.53 µM) was 0.669 and the relative viability (A-427; first compound 8 µM) was 0.966.
